In the oligonucleotide strings, read from the 5' end, every base follows the letter of its sugar. An asterisk marks phosphorothioate; unmarked linkages are phosphodiester. Other units and linkages are bracketed, terminal groups are in braces. A string of capitals states the bases alone. e = 2'-O-(2-methoxyethyl) (MOE); [5mC] = 5-methylcytosine; d = 2'-deoxy (DNA)
test system: human bcl-x mRNA; test: Northern blot analysis of bcl-x mRNA levels in A549 cells; format: cell-based; conditions: 200 nM chimeric oligonucleotide
Procedure: Eighteen hours after antisense treatment, cell monolayers were washed twice with cold PBS and lysed in 1 mL RNAZOL™ (TEL-TEST “B” Inc., Friendswood, Tex.). Total RNA was prepared following manufacturer's recommended protocols. Twenty micrograms of total RNA was fractionated by electrophoresis through 1.2% agarose gels containing 1.1% formaldehyde using a MOPS buffer system (AMRESCO, Inc. Solon, Ohio). RNA was transferred from the gel to HYBOND™-N+ nylon membranes (Amersham Pharmacia Biotech, Piscataway, N.J.) by overnight capillary transfer using a Northern/Southern Transfer buffer system (TEL-TEST “B” Inc., Friendswood, Tex.). RNA transfer was confirmed by UV visualization. Membranes were fixed by UV cross-linking using a STRATALINKER™ UV Crosslinker 2400 (Stratagene, Inc, La Jolla, Calif.).
Membranes were probed using QUICKHYB™ hybridization solution (Stratagene, La Jolla, Calif.) using manufacturer's recommendations for stringent conditions with an 822-base pair bcl-x specific probe prepared by PCR from bases 33–855 of human bcl-xl sequence (Boise et al., 1993, Cell 74:597–608; GenBank accession no. L20121). To normalize for variations in loading and transfer efficiency membranes were stripped and probed for glyceraldehyde-3-phosphate dehydrogenase (GAPDH) RNA (Clontech, Palo Alto, Calif.). Hybridized membranes were visualized and quantitated using a PHOSPHORIMAGER™ and IMAGEQUANT™ Software V3.3 (Molecular Dynamics, Sunnyvale, Calif.). Data was normalized to GAPDH levels in untreated controls.
Oligonucleotides were tested by Northern blot analysis as described in Example 14. Oligonucleotides were tested in A549 cells at a concentration of 400 nM. The results are Table 2:
Oligonucleotides were tested by Northern blot analysis as described in Example 14. Chimeric oligonucleotides were in A549 cells at a concentration of 200 nM. Where present, “N.D.” indicates “not determined”.

| Substance | % CONTROL (bcl-x mRNA levels) [%] | % INHIB (bcl-x mRNA levels) [%] |
| --- | --- | --- |
| 16005 (antisense eG*e[5mC]*e[5mC]*eG*eG*dT*dA*dC*dC*dG*dC*dA*dG*dT*dT*e[5mC]*eA*eA*eA*e[5mC]) [compound 16005] | 17 | 83 |
| 16019 (antisense eG*eG*eA*eG*eG*dA*dT*dG*dT*dG*dG*dT*dG*dG*dA*eG*e[5mC]*eA*eG*eA) [compound 16019] | 40 | 60 |
| 16011 (antisense e[5mC]*eT*eG*eG*eA*dT*dC*dC*dA*dA*dG*dG*dC*dT*dC*eT*eA*eG*eG*eT) [compound 16011] | 31 | 69 |
| 16007 (antisense eT*eA*e[5mC]*e[5mC]*e[5mC]*dC*dA*dT*dC*dC*dC*dG*dG*dA*dA*eG*eA*eG*eT*eT) [compound 16007] | 31 | 69 |
| 16003 (antisense eA*eG*eT*eG*eG*dC*dT*dC*dC*dA*dT*dT*dC*dA*dC*e[5mC]*eG*e[5mC]*eG*eG) [compound 16003] | 12 | 88 |
| 15998 (antisense eT*eA*eA*eT*eA*dG*dG*dG*dA*dT*dG*dG*dG*dC*dT*e[5mC]*eA*eA*e[5mC]*e[5mC]) [compound 15998] | 13 | 87 |
| 16006 (antisense e[5mC]*eT*eG*eT*eT*dC*dA*dA*dA*dG*dC*dT*dC*dT*dG*eA*eT*eA*eT*eG) [compound 16006] | 28 | 72 |
| 16002 (antisense eA*eG*eG*eT*eG*dC*dC*dA*dG*dG*dA*dT*dG*dG*dG*eT*eT*eG*e[5mC]*e[5mC]) [compound 16002] | 8 | 92 |
| 16000 (antisense eG*eG*eG*e[5mC]*e[5mC]*dT*dC*dA*dG*dT*dC*dC*dT*dG*dT*eT*e[5mC]*eT*e[5mC]*eT) [compound 16000] | 4 | 96 |
| 16010 (antisense eT*e[5mC]*e[5mC]*eA*eA*dG*dC*dT*dG*dC*dG*dA*dT*dC*dC*eG*eA*e[5mC]*eT*e[5mC]) [compound 16010] | 13 | 87 |
| 16015 (antisense eG*eT*e[5mC]*eA*eT*dG*dC*dC*dC*dG*dT*dC*dA*dG*dG*eA*eA*e[5mC]*e[5mC]*eA) [compound 16015] | 12 | 88 |
| 15999 (antisense eT*e[5mC]*e[5mC]*e[5mC]*eG*dG*dT*dT*dG*dC*dT*dC*dT*dG*dA*eG*eA*e[5mC]*eA*eT) [compound 15999] | 4 | 96 |
| 16014 (antisense eA*eG*e[5mC]*eG*eT*dT*dC*dC*dT*dG*dG*dC*dC*dC*dT*eT*eT*e[5mC]*eG*eG) [compound 16014] | 22 | 78 |
| 16004 (antisense e[5mC]*eT*eT*eG*e[5mC]*dT*dT*dT*dA*dC*dT*dG*dC*dT*dG*e[5mC]*e[5mC]*eA*eT*eG) [compound 16004] | 5 | 95 |
| 16018 (antisense eG*eA*eG*eG*eG*dT*dA*dG*dA*dG*dT*dG*dG*dA*dT*eG*eG*eT*e[5mC]*eA) [compound 16018] | 40 | 60 |
| 16001 (antisense eT*e[5mC]*e[5mC]*eA*eT*dC*dT*dC*dC*dG*dA*dT*dT*dC*dA*eG*eT*e[5mC]*e[5mC]*e[5mC]) [compound 16001] | 17 | 83 |

same assay, conditions: 400 nM oligonucleotide

| Substance | % CONTROL (bcl-x mRNA levels) [%] | % INHIB (bcl-x mRNA levels) [%] |
| --- | --- | --- |
| 11224 (antisense dT*dC*dG*dC*dC*dT*dG*dC*dC*dT*dC*dC*dC*dT*dC*dA*dG*dC*dG*dC) [compound 11224] | 6 | 94 |
| 11219 (antisense dC*dG*dG*dG*dT*dT*dC*dT*dC*dC*dT*dG*dG*dT*dG*dG*dC*dA*dA*dT) [compound 11219] | 6 | 94 |
| 11993 (antisense dT*dC*dA*dT*dT*dC*dA*dC*dT*dA*dC*dC*dT*dG*dT*dT*dC*dA*dA*dA) [compound 11993] | 142 | – |
| 11229 (antisense dA*dC*dC*dA*dG*dT*dC*dC*dA*dT*dT*dG*dT*dC*dC*dA*dA*dA*dA*dC) [compound 11229] | 60 | 40 |
| 11225 (antisense dC*dA*dG*dT*dG*dG*dC*dT*dC*dC*dA*dT*dT*dC*dA*dC*dC*dG*dC*dG) [compound 11225] | 25 | 75 |
| 11227 (antisense dA*dA*dA*dG*dT*dC*dA*dA*dC*dC*dA*dC*dC*dA*dG*dC*dT*dC*dC*dC) [compound 11227] | 10 | 90 |
| 11221 (antisense dA*dG*dC*dC*dC*dA*dG*dC*dA*dG*dA*dA*dC*dC*dA*dC*dG*dC*dC*dG) [compound 11221] | 11 | 89 |
| 11223 (antisense dC*dA*dG*dT*dG*dC*dC*dC*dC*dG*dC*dC*dG*dA*dA*dG*dG*dA*dG*dA) [compound 11223] | 9 | 91 |
| 11228 (antisense dC*dC*dG*dG*dT*dT*dG*dC*dT*dC*dT*dG*dA*dG*dA*dC*dA*dT*dT*dT) [compound 11228] | 31 | 69 |
| 11222 (antisense dG*dT*dT*dG*dA*dA*dG*dC*dG*dT*dT*dC*dC*dT*dG*dG*dC*dC*dC*dT) [compound 11222] | 35 | 65 |
| 11220 (antisense dC*dA*dG*dT*dG*dT*dC*dT*dG*dG*dT*dC*dA*dT*dT*dT*dC*dC*dG*dA) [compound 11220] | 12 | 88 |
| 11226 (antisense dA*dT*dT*dC*dA*dG*dT*dC*dC*dC*dT*dT*dC*dT*dG*dG*dG*dG*dC*dC) [compound 11226] | 34 | 66 |
| 11230 (antisense dG*dA*dA*dG*dG*dG*dA*dG*dA*dG*dA*dA*dA*dG*dA*dG*dA*dT*dT*dC) [compound 11230] | 135 | – |

same assay, conditions: dose-response, Northern blot

| Substance | IC50 [nM] |
| --- | --- |
| 11224 (antisense dT*dC*dG*dC*dC*dT*dG*dC*dC*dT*dC*dC*dC*dT*dC*dA*dG*dC*dG*dC) [compound 11224] | ~175 |
| CGGGTTCTCCTGGTGGCAAT (all phosphorothioate, sugars by position and methylation of C not given here; further chemistry not fully specified) [ISIS 11219] | ~250 |

test system: bcl-xs/bcl-xl mRNA ratio; test: RNase protection assay, bcl-xs/bcl-xl mRNA ratio in A549 cells; format: cell-based, human; conditions: A549 cells, RPA, 200 nM; no oligo = 1
From the text: The ribonuclease (RNase) protection assay is a sensitive and specific method for quantitating expression levels (Zinn, et al., Cell, 1983, 34:865–79). The method is based on the hybridization of a target RNA to an in vitro transcribed ^32P-labeled anti-sense RNA probe from a DNA template. RNase treatment follows, resulting in degradation of single-stranded RNA and excess probe. The probe and target RNA are resolved by denaturing polyacrylamide gel electrophoresis with the “protected” probe visualized using autoradiography or beta imaging equipment. Template sets can be purchased (PharMingen Inc., San Diego Calif.) which contain a series of biologically relevant templates, each of distinct length and each representing a sequence in a distinct mRNA species. Each template set is capable of detecting up to 11 unique gene messages in a single reaction mix in addition to one or more housekeeping genes, L32 and GAPDH, which serve as internal controls. These template sets allow for multiple determinations to be made from a single sample. Multi-probe RPA can be performed on total RNA preparations derived by standard methods, without further purification of poly-A+ RNA.
Oligonucleotides were evaluated for their respective effects on bcl-xs and bcl-xl mRNA levels along with total bcl-x mRNA levels, using the RIBOQUANT™ RNase protection kit (Pharmingen, San Diego Calif.). All assays were performed according to manufacturer's protocols. Briefly, multi-probe DNA template sets were used to generate antisense RNA transcripts radiolabeled with […]. The template set used for apoptosis genes was the human hAPO-2 set. These radiolabeled probes were hybridized overnight with typically 10 μg of total cellular RNA. The reaction mixture was then digested with single-strand RNases to generate the protected fragments which were electrophoresed through a 5% acrylamide/urea gel. Protected bands were visualized and quantitated using a PhosphorImager (Molecular Dynamics, Sunnyvale Calif.).
Human bcl-x has two forms, a long form known as bcl-xl and a short form known as bcl-xs. […] The protein of bcl-xl is similar in size and structure to bcl-2, and could inhibit cell death upon growth factor withdrawal. The protein of bcl-xs is 63 amino acids shorter than bcl-xl. It could inhibit the bcl-2 function, thus promoting programmed cell death (apoptosis). Oligonucleotides were evaluated for their respective effects on bcl-xs and bcl-xl mRNA levels along with total bcl-x mRNA levels, using the RIBOQUANT™ RNase protection kit (Pharmingen, San Diego Calif.). All assays were performed according to manufacturer's protocols.
These oligonucleotides were tested for their inhibitory effects on bcl-xl and bcl-xs mRNA levels in A549 cells, as detected by RPA analysis. Oligonucleotide concentration was 200 nM.

| Substance | bcl-xs/bcl-xl Fold difference [fold] |
| --- | --- |
| TGGTTCTTACCCAGCCGCCG (all 2'-MOE, all phosphorothioate, methylation of C not given here) [ISIS 105751] | 45 |

Reference: US7148204B2, “Antisense modulation of bcl-x expression” (Isis Pharmaceuticala, Inc., priority 1998, dated 2006)
